In data set [1] the test system is Trypanosoma brucei. Kind of data set: Antiparasitic activity against Trypanosoma brucei incubated for 72 hrs by SYBR Green 1 dye based fluorescence assay. Type of data set: functional, organism-based.
Data set [2] relates to Trypanosoma cruzi. Put plainly: Antiparasitic activity against Trypanosoma cruzi CA-I/72 incubated for 72 hrs by DAPI staining based microscopic analysis. Type of data set: functional, organism-based. To be noted: CA-I/72, 72 h.
For data set [3], the system named is Trypanosoma brucei. Put plainly: Inhibition of TbrCatL using Z-FR-AMC as substrate at 100 uM by fluorimetric analysis relative to control.
A further data set deals with Cruzipain (Trypanosoma cruzi, UniProt P25779). Put plainly: Inhibition of Trypanosoma cruzi cruzain using Z-FR-AMC as substrate preincubated for 10 mins followed by substrate addition by fluorimetric analysis.
Chain of Cruzipain (P25779 whole entry): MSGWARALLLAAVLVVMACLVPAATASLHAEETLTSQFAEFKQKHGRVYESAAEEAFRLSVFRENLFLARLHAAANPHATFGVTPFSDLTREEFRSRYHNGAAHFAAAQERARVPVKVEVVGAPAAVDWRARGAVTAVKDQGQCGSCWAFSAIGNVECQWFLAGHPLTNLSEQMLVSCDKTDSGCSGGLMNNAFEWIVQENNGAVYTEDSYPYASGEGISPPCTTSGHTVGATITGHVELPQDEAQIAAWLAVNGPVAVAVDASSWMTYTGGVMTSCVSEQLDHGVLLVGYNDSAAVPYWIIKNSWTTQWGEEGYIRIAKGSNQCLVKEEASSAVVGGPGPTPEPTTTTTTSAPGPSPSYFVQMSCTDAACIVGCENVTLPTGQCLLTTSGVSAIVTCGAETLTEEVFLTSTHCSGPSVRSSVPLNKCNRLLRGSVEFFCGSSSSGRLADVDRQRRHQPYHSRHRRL
Data set [4] relates to Trypanosoma brucei. Kind of data set: Inhibition of TbrCatL using Z-FR-AMC as substrate at 100 uM preincubated for 10 mins followed by substrate addition by fluorimetric analysis relative to control.
Data set [5] is described as follows: Inhibition of TbrCatL using Z-FR-AMC as substrate preincubated for 10 mins followed by substrate addition by fluorimetric analysis. The arrangement: species or system Trypanosoma brucei.
Data set [6] can be described thus: Inhibition of TbrCatL using Z-FR-AMC as substrate preincubated for 10 mins followed by substrate addition in presence of 0.01% Triton by fluorimetric analysis. The arrangement: species or system Trypanosoma brucei.
Data set [7] has as its target Cruzipain (Trypanosoma cruzi) (UniProt P25779). Kind of data set: Inhibition of Trypanosoma cruzi cruzain using Z-FR-AMC as substrate at 100 uM preincubated for 10 mins followed by substrate addition by fluorimetric analysis relative to control.
Data set [8] shares this target. Put plainly: Inhibition of Trypanosoma cruzi cruzain using Z-FR-AMC as substrate at 100 uM by fluorimetric analysis relative to control.
The nature of data set [9]: Inhibition of TbrCatL using Z-FR-AMC as substrate preincubated for 10 mins followed by substrate addition in presence of 0% Triton by fluorimetric analysis. The arrangement: species or system Trypanosoma brucei.
The nature of data set [10]: Selectivity index, ratio of CC50 for mouse myoblasts cells to EC50 for Trypanosoma cruzi CA-I/72. To be noted: read-out: Ratio CC50/EC50. Type of data set: toxicity.
The test system of data set [11] is Trypanosoma cruzi. Kind of data set: Potency index, ratio of benznidazole EC50 to test compound EC50 for antiparasitic activity against Trypanosoma cruzi CA-I/72 incubated for 72 hrs by DAPI staining based microscopic analysis. Type of data set: functional.
Data set [12] in a line: Inhibition of TbrCatL using Z-FR-AMC as substrate preincubated for 10 mins in presence of BSA followed by substrate addition by fluorimetric analysis. The arrangement: species or system Trypanosoma brucei.
In data set [13] the target is Nonstructural protein 3 (Zika virus) (UniProt A0A024AXB9). Put plainly: Inhibition of Zika virus NS2B-NS3 protease using Bz-Nle-Lys-Lys-Arg-AMC as substrate at 0.78 uM preincubated for 10 mins followed by substrate addition relative to control.
Chain of Nonstructural protein 3 (Zika virus) (A0A024AXB9 as listed by the source): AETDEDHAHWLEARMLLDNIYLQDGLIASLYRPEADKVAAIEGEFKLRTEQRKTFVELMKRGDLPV
Data set [14] addresses Cruzipain (Trypanosoma cruzi) (UniProt P25779). Put plainly: Inhibition of Trypanosoma cruzi cruzain using Z-FR-AMC as substrate at 0.25 to 1 uM incubated for 10 mins by fluorimetric analysis. To be noted: dose 0.25-1 µM.
Data set [15] can be described thus: Inhibition of TbrCatL using Z-FR-AMC as substrate preincubated for 10 mins followed by substrate addition in presence of 0.1% Triton by fluorimetric analysis. The arrangement: species or system Trypanosoma brucei.
The subject of data set [16] is Trypanosoma cruzi. Put plainly: Potency index, ratio of pentamidine EC50 to test compound EC50 for antiparasitic activity against Trypanosoma cruzi CA-I/72 incubated for 72 hrs by DAPI staining based microscopic analysis. Type of data set: functional.

Data on 18 compounds can be found in ChEMBL document CHEMBL5247638, “From rational design to serendipity: Discovery of novel thiosemicarbazones as potent trypanocidal compounds” (Eur J Med Chem, 2022).

Calls of active or inactive are those of the source. The rule behind the calls is not given here.

Chain of Cruzipain (Trypanosoma cruzi) (P25779 123-467 limits assumed): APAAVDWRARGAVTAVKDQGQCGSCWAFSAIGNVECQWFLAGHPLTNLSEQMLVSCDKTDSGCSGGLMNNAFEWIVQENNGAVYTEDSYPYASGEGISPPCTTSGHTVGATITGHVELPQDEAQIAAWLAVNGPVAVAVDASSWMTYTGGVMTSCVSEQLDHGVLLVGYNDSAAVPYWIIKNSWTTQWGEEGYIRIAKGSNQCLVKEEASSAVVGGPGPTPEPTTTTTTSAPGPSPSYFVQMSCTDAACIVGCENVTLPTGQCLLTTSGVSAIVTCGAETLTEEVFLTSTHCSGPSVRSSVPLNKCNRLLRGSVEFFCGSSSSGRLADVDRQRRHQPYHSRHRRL

What is called EC50 is the concentration that produces a half-maximal response. Turning to `O=C(NCCO)c1cn(-c2ccc(Br)cc2Cl)nn1`, the figures for the concentration giving a half-maximal response (EC50) with Trypanosoma brucei [1] and in the data set on Trypanosoma cruzi [2] were greater than 50 µM and greater than 10 µM, respectively.
The like results for `OCCNCc1cn(-c2ccc(Cl)cc2)nn1` were, in that order, greater than 50 µM and greater than 10 µM.
By inhibition is commonly meant the percentage by which the read-out fell short of the control. The IC50 is the concentration needed to halve the response being measured. Regarding `OCC(CO)NCc1ccc(-c2ccc(Cl)c(C(F)(F)F)c2)o1`, the inhibition with Trypanosoma brucei [3] worked out at 0%; in the data set on Trypanosoma brucei [4], 51%. The figures for the concentration for a half-maximal effect (EC50) with Trypanosoma brucei [1] and in the data set on Trypanosoma cruzi [2] were greater than 50 µM and greater than 10 µM, respectively. On Cruzipain, this compound gave a 50% inhibitory concentration (IC50) of 133 µM.
`OCC(CO)NCc1ccc(-c2ccc(Br)cc2Cl)o1` returned an inhibition in the data set on Trypanosoma brucei [3] of 64%. In addition, the EC50 with Trypanosoma brucei [1] was 39.5 µM; with Trypanosoma cruzi [2], greater than 10 µM. For the same compound, the IC50 against Cruzipain was 149 µM; in data set [5] it was 90 µM.
In the case of `NC(=S)N/N=C/c1cn(-c2ccc(Cl)cc2)nn1`, the figures for the 50% inhibitory concentration (IC50) in [6], in data set [5] and in data set [9] were 16 µM, 16.5 µM and 1 µM, respectively. Further, the inhibition in the data set with Trypanosoma brucei [3] is 73%; in [7], 72%; in [8], 52%; in the data set with Trypanosoma brucei [4] it was 91%. Besides, the EC50 is greater than 50 µM in the data set with Trypanosoma brucei [1] and greater than 10 µM in the data set on Trypanosoma cruzi [2].
With `OCCNCc1cn(-c2ccc(Br)cc2Cl)nn1`, the EC50 was greater than 50 µM in the data set with Trypanosoma brucei [1] and greater than 10 µM in the data set on Trypanosoma cruzi [2].
On to `Clc1cc(Br)ccc1-c1ccc(CNCCN2CCOCC2)o1`, for which the inhibition was found to be 62% in the data set with Trypanosoma brucei [3] and 60% in the data set with Trypanosoma brucei [4]. In addition, the values for the EC50 in the data set with Trypanosoma brucei [1] and in the data set on Trypanosoma cruzi [2] were 24.4 µM and 0.59 µM, respectively. The IC50 against Cruzipain was 92 µM; in data set [5] it was 79 µM. Moreover, in [10], the selectivity ratio is greater than 17.
Turning to `CN(C)CCCNCc1ccc(-c2ccc(Br)cc2)o1`, the results for the inhibition (in the data set with Trypanosoma brucei [3]; in data set [8]) were 59% and 79%, respectively.
In the case of `NC(=S)N/N=C/c1ccc(-c2ccc(Cl)cc2)o1`, at Cruzipain, the 50% inhibitory concentration (IC50) stood at 1 µM. The selectivity ratio in data set [10] was greater than 18.
Take `OCCNCc1ccc(-c2ccc(Br)cc2Cl)o1`: the inhibition in the data set on Trypanosoma brucei [3] came out at 68%; with Trypanosoma brucei [4], 67%. The results for the 50% effective concentration (EC50) with Trypanosoma brucei [1] and with Trypanosoma cruzi [2] were 13 µM and greater than 10 µM, respectively. Further, the IC50 was determined as 51 µM against Cruzipain and 78 µM in [5].
As to `NC(=S)N/N=C/c1ccc(-c2ccc(Br)cc2Cl)o1`, the “Ratio EC50” value in the data set with Trypanosoma cruzi [11] and in the data set with Trypanosoma cruzi [16] was 200 in each case. For the same compound, the half-maximal inhibitory concentration (IC50) in data set [6] came to 0.05 µM; against Cruzipain it was 0.45 µM; in [12] it was 14 µM; in [5] it was 0.05 µM; in data set [15], 0.7 µM; in data set [9], 0.006 µM. The inhibition with Trypanosoma brucei [3] turned out to be 22%; in [7], 70%; in [13], 8%; in data set [8], 17%; in the data set on Trypanosoma brucei [4] it was 90%. Besides, the concentration giving a half-maximal response (EC50) with Trypanosoma brucei [1] is greater than 50 µM; with Trypanosoma cruzi [2], 0.027 µM. The selectivity ratio in data set [10] is greater than 370. Besides, the inhibition result in data set [14] was “inactive”.
In the case of `CN(C)CCCNCc1ccc(-c2ccc(Cl)cc2Cl)o1`, the inhibition in the data set with Trypanosoma brucei [3] is 81%; in data set [8], 67%.
For `NC(=S)N/N=C/c1cn(-c2ccc(Br)cc2Cl)nn1`, the 50% inhibitory concentration (IC50) in data set [6] is 2 µM; in data set [5], 2.5 µM; in data set [9], 0.6 µM. Also, the inhibition in the data set with Trypanosoma brucei [3] was 25%; in data set [7], 6%; in data set [8] it was 16%; in the data set on Trypanosoma brucei [4], 98%. Also, the EC50 with Trypanosoma brucei [1] was greater than 50 µM; with Trypanosoma cruzi [2], greater than 10 µM.
For `OCCNCc1cn(-c2ccc(Cl)c(Cl)c2)nn1`, the EC50 in the data set on Trypanosoma brucei [1] was greater than 50 µM; in the data set with Trypanosoma cruzi [2] it was greater than 10 µM.
`OCCNCc1ccc(-c2ccc(Cl)c(Cl)c2)o1`: the inhibition in the data set on Trypanosoma brucei [3] was found to be 29%; in data set [7] it was 55%; in [8] it was 62%; in the data set with Trypanosoma brucei [4], 40%. The half-maximal effective concentration (EC50) with Trypanosoma brucei [1] is greater than 50 µM; with Trypanosoma cruzi [2] it was greater than 10 µM.
With `Clc1ccc(-n2cc(CNCC3CCNCC3)nn2)cc1`, the results for the EC50 in the data set on Trypanosoma brucei [1] and in the data set with Trypanosoma cruzi [2] were 49.7 µM and greater than 10 µM, respectively. In data set [5], this compound returned an IC50 of 168 µM.
Take `N/C(S)=N/N=C/c1ccc(-c2ccc(Cl)cc2)o1`: the IC50 in data set [6] worked out at 0.04 µM; in data set [12] it was 15 µM; in data set [5] it was 0.04 µM; in [9] it was 0.07 µM. In addition, the inhibition with Trypanosoma brucei [3] was 14%; in data set [7], 94%; in data set [13], 24%; in data set [8] it was 19%; with Trypanosoma brucei [4], 96%. The concentration for a half-maximal effect (EC50) in the data set on Trypanosoma brucei [1] was determined as 27 µM; in the data set with Trypanosoma cruzi [2] it was 0.56 µM. Further, in data set [14], the inhibition entry was “inactive”.
Take `O=C(Cn1ccnc1[N+](=O)[O-])NCc1ccccc1` [BENZNIDAZOLE]: the midpoint of the response with Trypanosoma cruzi [2], the EC50, lay at 5.4 µM. The selectivity ratio in data set [10] is greater than 9.
